{"source": "patent US9839241B2", "about": "“Methods, devices and systems for pulmonary delivery of active agents” (priority 2014, dated 2017)", "key": {"[1]": {"assay": "Analysis of residual cannabis material after vaporization in the MDI"}, "[2]": {"assay": "PK study: plasma Δ^9-THC levels after single dose inhalation from cannabis flos with the metered-dose inhaler (MDI)", "method": "A study was conducted in order to characterize the inter-individual variability of Δ^9-THC plasma levels during the absorption phase, upon using a hand-held metered-dose MDI device configured for pulmonary delivering pre-determined amounts of the active agent Δ^9-THC from a solid substance (cannabis-derived plant substance) upon heating the substance.\nRoutine medications were continued throughout the trial."}, "[3]": {"assay": "Monitoring of adverse effects, blood pressure and heart rate after inhalation", "type": "in vivo, human", "method": "(§1) The study was used to further evaluate the pharmacodynamic effect of pulmonary delivery of Δ^9-THC on pain reduction from baseline using a 10 cm visual analog scale (VAS) pain scale (0 being no pain; and 10 being worst possible pain); for monitoring adverse effects, blood pressure and heart rate, and for estimating the degree of satisfaction with the use of the MDI on a 0-10 scale.\n(§2) Pain intensity reduction was assessed as a therapeutic effect by asking participants to indicate the intensity of their current pain on a 100 mm visual analog scale (VAS) between 0 (no pain) and 100 (worst possible pain) at baseline (prior to the inhalation) and at 20 and 90 minutes following the pulmonary delivery of the pharmaceutically active agent from cannabis. Adverse effects, in the form of psychotropic symptoms, were recorded at 5, 15, 30, 60 and 120 minutes post pulmonary delivery, along with those spontaneously reported by the participants. Adverse effects were evaluated according to standardized criteria in terms of severity, frequency, duration and relationship to the study's active agent. Adverse effects were graded using the NIH Division of AIDS table for scoring severity of adult adverse experiences. Blood pressure and pulse rate were also recorded before, during and after the pulmonary delivery.\nResults are reported herein as mean values±1 standard deviation (±SD). […]"}, "[4]": {"conditions": "cited from earlier work; for mean Cmax increase per mg Δ^9-THC: continuous blood withdrawal"}, "[5]": {"system": "chronic neuropathic pain", "conditions": "cited from earlier work; for reduction of pain intensity: Wilsey et al. 2013, vaporized 10.3 mg total available Δ^9-THC in two sessions"}, "[6]": {"system": "neuropathic pain", "assay": "VAS pain intensity after pulmonary delivery of Δ^9-THC with the MDI", "type": "in vivo, human", "method": "as §1\nThe study was conducted at the Pain Research Unit of Rambam Health Care Campus in Haifa, Israel.\nas §2\nResults are reported herein as mean values±1 standard deviation (±SD). For each one of the measured effects (VAS pain intensity, systolic and diastolic blood pressure, heart rate and satisfaction score), the mean and 95% confidence interval (CI) at different time points was plotted. Differences between VAS pain intensity values and satisfaction scores, before and after inhalation, were tested by two-tailed paired Student t-test. Blood pressure and heart rate values were compared among different time points by one-way ANOVA. P-values <0.05 were accepted as significant. All statistical analyses were performed using Minitab Statistical Software, version 16."}}, "note": "“Also recorded” adds a separate entry of the source. Where two headings read alike, the source gives them in different places."}
{"smiles": "CCCCCc1cc(O)c2c(c1)OC(C)(C)[C@@H]1CCC(C)=C[C@@H]21", "note": "[Δ^9-THC, Δ9-tetrahydrocannabinol]", "values": [{"measurement": "cannabinol (product of THC oxidation) in residues", "setting": "[1]", "value": "no increase of cannabinol"}, {"measurement": "inter-individual variability of Cmax (coefficient of variation)", "setting": "[2]; MDI device", "value": 25.3, "unit": "%"}, {"measurement": "AUC", "setting": "[2]; human, plasma, inhaled or intranasal, 3.08 mg, AUC (Mean), mean of 8 participants, same single dose inhalation", "value": 10.1, "unit": "ng·h/mL"}, {"measurement": "Cmax", "setting": "[2]; human, plasma, inhaled or intranasal, 3.08 mg, Cmax (Mean), mean of 8 participants, same single dose inhalation", "value": 38, "unit": "ng/mL"}, {"measurement": "Tmax", "setting": "[2]; human, plasma, inhaled or intranasal, 3.08 mg, Tmax (Mean), mean of 8 participants, same single dose inhalation", "value": 3, "unit": "min"}, {"measurement": "AUC(0-inf)", "setting": "[2]; human, plasma, inhaled, 3.08 mg", "value": 10.1, "unit": "ng·h/mL"}, {"measurement": "time of first detection in blood sample", "setting": "[2]; post-inhalation, six patients without residual plasma THC at baseline", "value": 1, "unit": "min"}, {"measurement": "increase of Cmax per mg of Δ^9-THC available in the cannabis used (mean)", "setting": "[2]; pulmonary delivery method described herein (MDI)", "value": 12.3, "unit": "ng/ml/mg Δ^9-THC"}, {"measurement": "plasma concentration profile over time", "setting": "[2]; pulmonary delivery with the MDI", "value": "rapid absorption, followed by bi-phasic decline in plasma concentration over time"}, {"measurement": "time to full recovery from light headedness", "setting": "[3]; all the other patients, post-inhalation", "value": "≤ 30", "unit": "min"}, {"measurement": "adverse effects (overall)", "setting": "[3]; single dose inhalation with MDI, listed as THC", "value": "minimal, reversible and well tolerated; also recorded: minimal, reversible and receded rapidly"}, {"measurement": "mean Cmax increase per mg Δ^9-THC", "setting": "[4]; after the first puff of a 1.75% Δ^9-THC cigarette", "value": 3.54, "unit": "ng/ml per mg Δ^9-THC"}, {"measurement": "mean Cmax increase per mg Δ^9-THC", "setting": "[4]; after the first puff of a 3.55% Δ^9-THC cigarette", "value": 4.28, "unit": "ng/ml per mg Δ^9-THC"}, {"measurement": "plasma Cmax levels per mg of Δ^9-THC administered", "setting": "[4]; intravenous administration (Ohlsson et al. 1980)", "value": 43.8, "unit": "ng Δ^9-THC/ml plasma"}, {"measurement": "inter-individual variability of Cmax (coefficient of variation)", "setting": "[4]; oral administration", "value": "42-115%"}, {"measurement": "inter-individual variability of Cmax (coefficient of variation)", "setting": "[4]; oromucosal route of delivery", "value": "59-67%"}, {"measurement": "inter-individual variability of Cmax (coefficient of variation)", "setting": "[4]; smoking cigarettes", "value": "32-115%"}, {"measurement": "inter-individual variability of Cmax (coefficient of variation)", "setting": "[4]; vaporizer (Abrams)", "value": "47-85%"}, {"measurement": "mean Cmax elevation", "setting": "[5]; Ware et al. 2010, single smoke inhalation of 25±1 mg cannabis, 9.4% Δ^9-THC, three times a day for 5 days", "value": 45, "unit": "ng/mL"}, {"measurement": "reduction of neuropathic pain (plateau, ceiling effect)", "setting": "[5]; Wilsey et al. 2008, smoking 19 mg or 34 mg total available Δ^9-THC in 3 doses", "value": 45, "unit": "%"}, {"measurement": "reduction of pain intensity", "setting": "[5]; 3 hours", "value": 31, "unit": "%"}, {"measurement": "reduction of pain intensity", "setting": "[5]; 5 hours", "value": 25, "unit": "%"}, {"measurement": "decrease of VAS pain intensity from baseline", "setting": "[6]; 20 minutes after inhalation, baseline 7.5±1.4, 95% CI [2.1, 4.9], P=0.001", "value": 3.4, "unit": "points"}, {"measurement": "VAS pain intensity versus baseline", "setting": "[6]; 90 minutes post-dosing", "value": "virtually identical results as at baseline"}, {"measurement": "time to reversal of pain reduction", "setting": "[6]; single inhalation, 3.08±0.02 mg total available Δ^9-THC", "value": "≤ 90", "unit": "min"}]}
